{
  "source": "patent US20050063956A1",
  "about": "“Method and device for attracting insects” (Colorado State University Research Foundation, priority 1998, published 2005)",
  "key": {"Reticulitermes tibialis": {"system": "Reticulitermes tibialis", "assay": "T-tube choice-test behavioral bioassay with CO2", "type": "in vivo", "protocol": "Behavioral bioassay apparatus: The choice-test bioassay apparatus was constructed from a glass T-tube (5 mm inside diameter, 5 mm stem, with each branch 4.5 cm long). Each branch of the ‘T’ was bent downward (2.5 cm from the junction of the ‘T’) at a 45° angle to form a pitfall trap. A 5 mm NMR cap (cat. no. 100-0050, Drummond Scientific, Broomall, Pa.) with a 1 mm pinhole in it was firmly pushed over the end of each bent branch. A 25 cm length of Teflon tubing (0.8 mm inside diameter) was inserted 3 mm into the hole in each NMR cap and the other end of the tubing was connected to a 35 ml polyethylene syringe (cat. no. 106-0490, Sherwood Medical, St. Louis, Mo.). The two 35-ml syringes were connected to a syringe pump which was adjusted to provide an airflow of 1 ml per min into each choice arm of the bioassay apparatus.\nMixtures of CO2 and ambient air were tested to determine the termite response to a range of CO2 concentrations. […] The CO2 concentration of the syringes was determined by using GC-MS-SIM analysis (see below) before each bioassay. […]\nProcedure: For bioassays, termite workers were collected from plastic tubs by using a camel's hair brush and were placed into a holding container constructed from a 3 cm length of Teflon tubing (8 mm inside diameter). […] Bioassays were conducted for 15 min, after which the number of termites in each pitfall was recorded. […]"}, "wireworm larvae": {"system": "wireworm larvae", "conditions": "in vivo; cited from earlier work"}},
  "note": "Entries after “also recorded” stand apart in the source; their conditions may differ.",
  "data": [
    {"compound": "O=C=O", "note": "[CO2, carbon dioxide]", "values": [
      {"measurement": "termite choice, CO2 side versus ambient air control side", "setting": "Reticulitermes tibialis; 5 mmol/mol CO2 versus ambient air, 15 min", "result": "significantly greater than the number that moved to the control side; also recorded: chose the mmol/mol CO2 side significantly more often; also recorded: Significantly more termites (p<0.05) were attracted to the side containing 5 mmol/mol CO2 than to the control side"},
      {"measurement": "CO2 concentration of best attraction", "setting": "Reticulitermes tibialis; in vivo", "result": 5, "unit": "mmol per mol"},
      {"measurement": "smallest CO2 difference responded to", "setting": "wireworm larvae", "result": 0.02, "unit": "%"}
    ]}
  ]
}
